Data: patent US20250074908A1, “SALT OF ROCK INHIBITOR, CRYSTAL FORM OF SALT, COMPOSITION, AND PHARMACEUTICAL USE” (WUHAN CREATERNA SCIENCE AND TECHNOLOGY CO., LTD., priority 2022, published 2025)
≈ marks a conversion by molar mass, not a printed value.

Legend:
[1] = Chemical stability on storage up to 3 months (HPLC purity), Table 13-4; type: physicochemical; settings: for stability in chemical properties: 40° C./75% humidity (sealed and protected from light); for Purity (%), 230 nm, Day 13: 40° C./75% humidity, sealed and protected from light
Procedure: B) The HPLC method used for the stability study was as follows:
The vials were sealed with tin foil and then separately placed under the conditions of 40° C. temperature/75% humidity or 25° C. temperature/60% humidity for about 3 months. The samples after being placed for 0 months, 2 weeks, 1 month and 3 months were taken and each dissolved in a diluent to prepare a solution at about 1.0 mg/mL, which was then tested for chemical stability by HPLC analysis using Shimadzu LC-20ADxr.

[2] = Solid-state stability test (HPLC purity and XRPD), Table 13-3; type: physicochemical
Procedure: B) The HPLC method used for the stability test was as follows:
The samples after being placed for 0 days, 1 week, 2 weeks and 30 days were taken and each dissolved in a diluent to prepare a solution at about 1.0 mg/mL, which was then tested for chemical stability by HPLC analysis using Agilent HPLC 1260 series. The solid samples after being placed for 2 weeks and 30 days were tested for physical stability by XRPD analysis.

[3] = Hygroscopicity test (dynamic vapor sorption, DVS); type: physicochemical; settings: for weight gain (DVS): 25° C.; for hygroscopicity: DVS
Procedure: The instrument used for dynamic vapor sorption analysis was Vsorp (ProUmid GmbH & Co. KG, Germany). Each sample was subjected to vapor sorption/desorption tests using the Vsorp vapor sorption analyzer (ProUmid GmbH & Co. KG, Germany). The sample was placed in a tared sample tray, and the change in the sample mass with humidity (0-90% RH) at 25° C. was recorded.

[4] = Solubility in biological media and purified water at 37° C. (tartrate, ethanesulfonate, 2-hydroxyethanesulfonate, sulfate); type: physicochemical
Procedure: (§1) A) The HPLC method used for the solubility test was as follows:
The centrifuge tubes were shaken on a constant temperature incubator shaker (at a temperature of 37° C., with a shaking frequency of 100 times/min).

[5] = Solubility in biologically relevant media at 37° C. (free base crystal form I, crystal form III of maleate); type: physicochemical; settings: for pH 24 h: filtrate
Procedure: as §1
15 mg of each sample was weighed and dispersed in 3.0 mL of biologically relevant medium. The dispersion was shaken on a shaker at a rotation speed of 800 rpm at 37° C. 1 mL of the dispersion was taken at 0.5 h, 2 h, and 24 h, and filtered. The filtrate was tested for solubility by Agilent HPLC 1260 series and for pH value by a pH meter. The filter cake was characterized for the crystal form by XRPD.

[6] = Pharmacokinetic study in rats; type: in vivo, SD rats
Procedure: Compound I, 2-hydroxyethanesulfonate of compound I, ethanesulfonate (crystal form I) of compound I, tartrate of compound I, and sulfate of compound I were each accurately weighed, and the required volume of vehicle was added. The mixture was stirred for 5 min, then sonicated below 25° C. until no large particles were visible to the naked eye, and further stirred for 30 min until a homogeneous suspension was obtained. The suspension was then used for administration.
Male SPF-grade SD rats (Beijing Vital River Laboratory Animal Technology Co., Ltd.) were given compound I, the 2-hydroxyethanesulfonate of compound I, the ethanesulfonate of compound I (crystal form I), the tartrate of compound I, and the sulfate of compound I by single intragastric administration after an acclimation period (with free access to water and food). Blood was collected from the orbital venous plexus of the rats at 0.167 h, 0.5 h, 1 h, 2 h, 3 h, 4 h, 6 h, 9 h, 12 h, and 24 h after administration. Each blood sample was centrifuged at 3500×g for 10 min at 4° C. The supernatant was then collected, and the concentration of compound I in the plasma was measured by LC-MS/MS (AB Sciex TRIPLE QUAD 3500). The data were analyzed using a non-compartmental model in WinNonlin (version 5.2.1 Pharsight, Mountain View, CA) to obtain PK parameters.

[7] = 60° C./sealed, 60° C./sealed/N2, 40° C./75% RH (open), RT/sealed for 2 weeks
[8] = filter cake after 24 h in FaSSIF
[9] = filter cake after 24 h in FeSSIF
[10] = simulated gastric fluid, thermodynamic from solid, SGF, 37° C.
[11] = male SD rats, single intragastric administration, 10 mg/kg (calculated as compound I), 10 mL/kg, suspension in 0.5% CMC-Na aqueous solution, plasma concentration of compound I

stability in chemical properties [1]	Purity (%), 230 nm, Day 13 [1] [%]	Purity (%), 230 nm, Day 0 [1] [%]	Purity (%), 230 nm, 40° C./75% RH (open) Week 2 ([2]; 40° C./75% RH (open)) [%]	Purity (%), 230 nm, 60° C./sealed Week 2 ([2]; 60° C./sealed) [%]	Purity (%), 230 nm, Day 0 [2] [%]	XRPD spectra before and after the DVS test [3]	weight gain (DVS) ([3]; 0.0% RH to 80% RH)	hygroscopicity [3]	Purity (%), 230 nm, 40° C./75% RH (open) Week 1 ([2]; 40° C./75% RH (open)) [%]	stability in physical and chemical properties [2, 7]	Purity (%), 230 nm, 60° C./sealed Week 1 ([2]; 60° C./sealed) [%]	Purity (%), 230 nm, 60° C./sealed/N2 Week 1 [2] [%]	Purity (%), 230 nm, 60° C./sealed/N2 Week 2 [2] [%]	Purity (%), 230 nm, RT/sealed Week 2 [2] [%]	XRPD (24 h) [5, 8]	XRPD (24 h) [5, 9]	XRPD (24 h) ([5]; filter cake after 24 h in SGF)	pH 24 h ([5]; FaSSIF)	pH 24 h ([5]; FeSSIF)	SMILES	further results
substantially stable	98.7	98.76																		Cn1c(C(=O)N2CC(F)(F)C2)cc2c1CN(c1ncc(F)c(Nc3ccc(-c4cn[nH]c4)cc3)n1)CC2.O=S(=O)(O)CCO	
substantially stable	98.69	98.68	99.49	99.50	99.48	crystal form remained unchanged	about 0.3%	slightly hygroscopic												CCS(=O)(=O)O.Cn1c(C(=O)N2CC(F)(F)C2)cc2c1CN(c1ncc(F)c(Nc3ccc(-c4cn[nH]c4)cc3)n1)CC2 [Crystal form I of ethanesulfonate]	stability in physical and chemical properties ([2]; 40° C./75% RH (open) and 60° C./sealed): substantially stable; Purity (%), 230 nm, 40° C./75% RH (open) Day 30 ([2]; 40° C./75% RH (open), Day 30): 99.48%; Purity (%), 230 nm, 60° C./sealed Day 30 ([2]; 60° C./sealed, Day 30): 99.49%; solubility in SGF in the first 4 h [4]: around 100 μg/mL
			97.92	97.85	98.11	crystal form remained unchanged	0.29%	slightly hygroscopic	98.00	slight degradation	97.96	97.95	97.97	98.02	underwent a crystal form transformation	underwent a crystal form transformation	underwent a crystal form transformation	5.33	4.90	Cn1c(C(=O)N2CC(F)(F)C2)cc2c1CN(c1ncc(F)c(Nc3ccc(-c4cn[nH]c4)cc3)n1)CC2.O=C(O)/C=C\C(=O)O [Crystal form III of maleate]	Solubility 0.5 h ([5]; FaSSIF, 37° C.): 0.14 µg/mL; Solubility 24 h ([5]; FaSSIF, 37° C.): 1.11 µg/mL; Solubility 0.5 h ([5]; FeSSIF, 37° C.): 0.74 µg/mL; Solubility 2 h ([5]; FeSSIF, 37° C.): 2.47 µg/mL; Solubility 24 h ([5]; FeSSIF, 37° C.): 3.90 µg/mL; Solubility 2 h ([5]; SGF, 37° C.): 2.18 µg/mL; Solubility 24 h ([5]; SGF, 37° C.): 6.45 µg/mL; pH 24 h ([5]; SGF): 1.29; weight gain (DVS) ([3]; 0.0% RH to 90% RH): 0.37%
			97.88	97.85	97.90	crystal form remained unchanged	0.30%	slightly hygroscopic	97.82	substantially stable	97.82	97.83	97.84	97.93	remained unchanged	remained unchanged	underwent a crystal form transformation	6.53	5.02	Cn1c(C(=O)N2CC(F)(F)C2)cc2c1CN(c1ncc(F)c(Nc3ccc(-c4cn[nH]c4)cc3)n1)CC2 [Free base crystal form I]	solubility ([5]; fassgf or other biorelevant, thermodynamic from solid, SGF, FaSSIF and FeSSIF, 37° C., read-out: solubility in the three biologically relevant media): < 50 µg/mL; pH 24 h ([5]; SGF): 1.30; solubility at 24 h ([5]; pH 1.3, simulated gastric fluid, thermodynamic from solid, SGF, 37° C.): 8.57 µg/mL (≈ 16.9 µM); solubility at 24 h ([5]; pH 5.02, thermodynamic from solid, FeSSIF, 37° C.): 3.35 µg/mL (≈ 6.59 µM); solubility at 24 h ([5]; pH 6.53, thermodynamic from solid, FaSSIF, 37° C.): 0.39 µg/mL (≈ 0.767 µM); solubility at 0.5 h [5, 10]: 11.5 µg/mL (≈ 22.6 µM); solubility at 2 h [5, 10]: 6.69 µg/mL (≈ 13.2 µM); solubility at 0.5 h ([5]; thermodynamic from solid, FaSSIF, 37° C.): 0.29 µg/mL (≈ 0.57 µM); solubility at 2 h ([5]; thermodynamic from solid, FeSSIF, 37° C.): 1.79 µg/mL (≈ 3.52 µM); weight gain (DVS) ([3]; 0.0% RH to 90% RH): 0.46%
																				O=S(=O)(O)CCO [Sample 2-Hydroxyethanesulfonate, 2-Hydroxyethanesulfonate]	AUClast [6, 11]: 9449 ng·h/mL; Cmax [6, 11]: 827 ng/mL
																				O=S(=O)(O)O [Sulfate]	AUClast ([6]; rat, in vivo, po, 10 mg/kg): 13429 ng·h/mL
